# Data: patent US20070021451A1, “Method for preventing or treating neurologic damage after spinal cord injury” (HAMAMATSU UNIVERSITY SCHOOL OF MEDICINE, priority 2005, published 2007)
# What was measured:
# [1] = test system: Rabbit Model of Spinal Cord Ischemia; assay: Neurologic assessment: hind-limb motor function by modified Tarlov scale; type: in vivo, New Zealand White rabbits
# Protocol: Twenty-six male New Zealand White rabbits weighting 2.2 to 3.0 kg were used in this experiment. Spinal cord ischemia was induced by occluding the abdominal aorta with […] for 20 minutes just distal to the renal arteries. Surgical preparation was conducted according to the method described in the literature, Terada H. et. al., J. Thorac. Cardiovasc. Surg. 2001; 122: 979-85. A 24-gauge venous catheter was placed in the marginal ear vein for drug administration. The rabbits were anesthetized with intravenous sodium pentobarbital (25 mg/kg) and allowed to breathe spontaneously. Lidocaine (0.5%) was administered at the site of the skin incision as local anesthesia. The left common carotid artery was cannulated with a 24-gauge catheter for monitoring the arterial pressure. Core body temperature was continuously monitored with a rectal probe and was maintained at 38.5° C. with the aid of heating lamp. The infrarenal abdominal aorta was exposed through a transperitoneal approach. After systemic heparinization (200 U/kg), spinal cord ischemia was induced by occluding the abdominal aorta with […] for 20 minutes just distal to the renal arteries and just above the aortic bifurcation. Then, the […] released, and the flank was closed. […] The rabbits were assigned randomly to 1 of the 4 groups and subjected to the treatment of (1) above in the following manner. The sham group (n=3) underwent the same operation without aortic occlusion. The control group (n=7) received saline (1 ml) intravenously 15 minutes before aortic occlusion. NS-7 (1 mg/kg) was administered intravenously as a bolus dose 15 minutes before aortic occlusion in group A (n=8) or just after releasing the […] onset of reperfusion) in group B (n=8). Hind-limb motor function was scored 24 and 48 hours after the operation by the modified Tarlov scale.
# [2] = test system: Rabbit Model of Spinal Cord Ischemia; assay: Infarct size of spinal cords by TTC staining; type: in vivo, New Zealand White rabbits; settings: for Infarct size as a percentage of the area of the whole gray matter: mid lumbar, 48 hours after spinal cord ischemia, control 54.7±19.8%
# Protocol: Twenty-six male New Zealand White rabbits weighting 2.2 to 3.0 kg were used in this experiment. Spinal cord ischemia was induced by occluding the abdominal aorta with […] for 20 minutes just distal to the renal arteries. Surgical preparation was conducted according to the method described in the literature, Terada H. et. al., J. Thorac. Cardiovasc. Surg. 2001; 122: 979-85. A 24-gauge venous catheter was placed in the marginal ear vein for drug administration. The rabbits were anesthetized with intravenous sodium pentobarbital (25 mg/kg) and allowed to breathe spontaneously. Lidocaine (0.5%) was administered at the site of the skin incision as local anesthesia. The left common carotid artery was cannulated with a 24-gauge catheter for monitoring the arterial pressure. Core body temperature was continuously monitored with a rectal probe and was maintained at 38.5° C. with the aid of heating lamp. The infrarenal abdominal aorta was exposed through a transperitoneal approach. After systemic heparinization (200 U/kg), spinal cord ischemia was induced by occluding the abdominal aorta with […] for 20 minutes just distal to the renal arteries and just above the aortic bifurcation. Then, the […] released, and the flank was closed. […] The rabbits were assigned randomly to 1 of the 4 groups and subjected to the treatment of (1) above in the following manner. The sham group (n=3) underwent the same operation without aortic occlusion. The control group (n=7) received saline (1 ml) intravenously 15 minutes before aortic occlusion. NS-7 (1 mg/kg) was administered intravenously as a bolus dose 15 minutes before aortic occlusion in group A (n=8) or just after releasing the […] onset of reperfusion) in group B (n=8). All animals were killed by means of a lethal injection of pentobarbital (200 mg/kg) 48 hours after operation. […] The area of infarction was calculated with National Institutes of Health Image software. The infarct size was expressed as a percentage of the area of the whole gray matter. […]
# [3] = Group A (n = 8, NS-7 1 mg/kg i.v. 15 min before aortic occlusion), 24 h after operation
# [4] = Group A (n = 8, NS-7 1 mg/kg i.v. 15 min before aortic occlusion), 48 h after operation
# [5] = Group B (n = 8, NS-7 1 mg/kg i.v. at onset of reperfusion), 24 h after operation
# [6] = Group B (n = 8, NS-7 1 mg/kg i.v. at onset of reperfusion), 48 h after operation
smiles,measurement,setting,value
"Cc1cc(-c2ccc(F)cc2)cc(OCCCCCN2CCCCC2)n1.Cl [NS-7, 4-(4-Fluorophenyl)-2-methyl-6-(5-piperidinopentyloxy)pyridine hydrochloride]",Number of rabbits with Tarlov score 0,[1]; [3],0
same,Number of rabbits with Tarlov score 1,[1]; [3],0
same,Number of rabbits with Tarlov score 2,[1]; [3],0
same,Number of rabbits with Tarlov score 3,[1]; [3],2
same,Number of rabbits with Tarlov score 4,[1]; [3],3
same,Number of rabbits with Tarlov score 5,[1]; [3],3
same,Number of rabbits with Tarlov score 0,[1]; [4],0
same,Number of rabbits with Tarlov score 1,[1]; [4],0
same,Number of rabbits with Tarlov score 2,[1]; [4],1
same,Number of rabbits with Tarlov score 3,[1]; [4],2
same,Number of rabbits with Tarlov score 4,[1]; [4],4
same,Number of rabbits with Tarlov score 5,[1]; [4],1
same,Number of rabbits with Tarlov score 0,[1]; [5],0
same,Number of rabbits with Tarlov score 1,[1]; [5],0
same,Number of rabbits with Tarlov score 2,[1]; [5],0
same,Number of rabbits with Tarlov score 3,[1]; [5],2
same,Number of rabbits with Tarlov score 4,[1]; [5],1
same,Number of rabbits with Tarlov score 5,[1]; [5],5
same,Number of rabbits with Tarlov score 0,[1]; [6],0
same,Number of rabbits with Tarlov score 1,[1]; [6],0
same,Number of rabbits with Tarlov score 2,[1]; [6],1
same,Number of rabbits with Tarlov score 3,[1]; [6],2
same,Number of rabbits with Tarlov score 4,[1]; [6],1
same,Number of rabbits with Tarlov score 5,[1]; [6],4
same,Recovery of motor function in the hind limbs,"[1]; group A and B, 24 hours and 48 hours after the operation, P<0.01 vs control",remarkably enhanced
same,Infarct size as a percentage of the area of the whole gray matter,[2]; NS-7 1 mg/kg i.v. at the onset of reperfusion (group B),12.1±12.8%
same,Infarct size as a percentage of the area of the whole gray matter,[2]; NS-7 1 mg/kg i.v. injected before ischemia (group A),14.0±14.3%
same,Gray matter infarction in TTC-stained sections (FIG. 1),"[2]; NS-7 before ischemia or at the onset of reperfusion, mid lumbar level",Minimal gray matter infarction
